Measurements published in article PMC11291853, “Haemodynamic, hormonal and renal actions of osteocrin in normal sheep” (Experimental Physiology, 2024).
Where no end group is shown, it is not given here.

Experiment: Plasma OSTN concentration, metabolic clearance rate and half-life during and after stepped I.V. infusion (OSTN RIA)
Type: in vivo, sheep
Settings: mean ± SD; for level at time molar at 1 h: sheep, sheep n = 8, RIA
Method: Sheep received I.V. infusions of increasing doses of ovine proOSTN (83–133), the putative 51 aa circulating peptide (at 2.5, 25 and 250 pmol/kg/min for 1 h each; Mimotopes, Melbourne, Victoria, Australia) and a vehicle control (0.9% saline) administered on separate days, ≥1 day apart, in a balanced random order.
Venous blood samples were obtained at 30 min and immediately preceding commencement of the first infusion (baseline) and at 30 min intervals for the duration of the study day. Samples were taken into tubes on ice, centrifuged at 4°C and stored at −20°C before assaying. Following extraction over C18 SepPac cartridges (Waters Corp., Milford, MA, USA), plasma concentrations of cGMP (Charles et al., [1990]), ANP (Charles et al., [1990]), BNP (Pemberton et al., [1997]), CNP (Charles et al., [1995]) and N‐terminal proCNP (NTproCNP) (Wilson et al., [2015]), were measured by radioimmunoassay (RIA) as previously described. Non‐extracted plasma renin activity (PRA) (Dunn & Espiner, [1976]) and aldosterone (Lun et al., [1983]) were measured as previously described. Cyclic AMP was measured by enzyme‐linked immunosorbent assay (catalogue no. ADI‐900‐163; Enzo Life Sciences, Farmingdale, NY, USA). For each analyte, all samples from individual animals were measured in the same assay to avoid interassay variability. Haematocrit concentrations were measured with every blood sample taken.
Osteocrin concentrations in the infusate were measured to calculate the infusion rate and metabolic clearance rate (MCR) of the peptide (MCR = infusion rate/plateau − baseline level).
Human proOSTN (83–112) […] was iodinated using 0.5 mCi Na^125I in the presence of […] chloramine‐T in […] phosphate buffer, pH 7.5, for 20 s, followed by the addition of 50 mg cysteine, 25 mg BSA and 20 mg KI in […] buffer. The resulting mixture was loaded onto a 10 cm RP300 Brownlee column and eluted with a gradient from 0% to 60% acetonitrile in 49 mmol/L KH2PO4 buffer, pH 2.9, over 30 min at 1 mL/min, collecting 0.5 mL fractions. The fraction containing the major peak of radioactive [^125I]‐proOSTN (83–112) was used in the RIA. Peptide standards were made from synthetic human proOSTN (83–133) taking into account the purity data supplied. All standards, sample extracts, antisera and tracer solutions were made up in pH 7.4 assay buffer (0.1% BSA in 0.1 M phosphate buffer). Fifty microlitres of sample extract or 1−1000 pmol/L of human proOSTN (83–133) standard (all in duplicate) were incubated with 50 μL antiserum H‐028‐68 (Phoenix Pharmaceuticals) at a dilution of 1:20,000 for 24 h at 4°C, followed by addition of 50 μL of tracer solution [^125I]‐proOSTN (83–112) containing 3000 cpm for an additional 24 h at 4°C. Bound and free [^125I]‐proOSTN (83–112) were separated by a solid‐phase second antibody method (Sac‐Cell, Donkey‐Anti Rabbit; IDS, UK), and the radioactivity in the bound [^125I]‐proOSTN (83–112) pellet was measured in a PerkinElmer Wizard2 10‐Detector Gamma Counter. Ovine concentrations of OSTN were extrapolated from the human standards, taking into account ovine proOSTN (83–133) cross‐reactivity. Ovine proOSTN (83–112) cross‐reactivity in the ANP, BNP and CNP RIA was <0.005%.

For “SFSGFGSPLDRLSAGSVSHKGKQRKVVDHPKRRFGIPMDRIGRNRLSNSRG [OSTN]”, the half-life (Coopworth, plasma, iv, normal sheep, after end of 250 pmol/kg/min infusion, samples at 1-15 min, read-out: Osteocrin plasma half-life) was 5.7 ± 1.8 min, the level at time molar at 1 h (Coopworth, plasma, iv, 2.5 pmol/kg/min, end of 60 min I.V. infusion at 2.5 pmol/kg/min) was 0.0287 ± 0.008 nM and the level at time molar at 1 h (Coopworth, plasma, iv, 25 pmol/kg/min, end of 60 min I.V. infusion at 25 pmol/kg/min) was 0.48 ± 0.195 nM. For the same sequence, the level at time molar at 1 h (Coopworth, plasma, iv, 250 pmol/kg/min, end of 60 min I.V. infusion at 250 pmol/kg/min) was 6.09 ± 0.75 nM and the Osteocrin plasma half-life (normal sheep, after end of 250 pmol/kg/min infusion, samples at 1-15 min) was ~6 min.
